Measurements published in PubChem BioAssay (NCI).
Values joined by “and” are separate entries in the source; they are usually repeats but may differ in a detail not shown here. Equal entries are not always repeated.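 Method: 48-hour compound exposure of cells in 96-well plates, five concentrations, linear interpolation of endpoints. GI50 = concentration required for 50% inhibition of growth. The concentration for full growth arrest is given as TGI.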

Tests used:
Experiment in all cases: NCI-60 cell line screen, 48 h
ACHN renal = test system: ACHN renal
OVCAR-4 ovarian = test system: OVCAR-4 ovarian
MCF7 breast = test system: MCF7 breast
SF-295 CNS = test system: SF-295 CNS
U251 CNS = test system: U251 CNS
PC-3 prostate = test system: PC-3 prostate
HT29 colon = test system: HT29 colon
DU-145 prostate = test system: DU-145 prostate
KM12 colon = test system: KM12 colon
RPMI-8226 leukemia = test system: RPMI-8226 leukemia

Row | Structure (SMILES) | GI50 (ACHN renal) | TGI (ACHN renal) | TGI (OVCAR-4 ovarian) | TGI (MCF7 breast) | GI50 (SF-295 CNS) | TGI (SF-295 CNS) | TGI (U251 CNS) | TGI (PC-3 prostate) | GI50 (HT29 colon) | TGI (HT29 colon) | GI50 (DU-145 prostate) [µM] | TGI (DU-145 prostate) | GI50 (KM12 colon) | TGI (KM12 colon) | GI50 (RPMI-8226 leukemia) | TGI (RPMI-8226 leukemia) | GI50 (OVCAR-4 ovarian) [µM] | GI50 (MCF7 breast) [µM] | GI50 (U251 CNS) [µM] | GI50 (PC-3 prostate) [µM]
1 | CC(C)CC(C/C=C1/CC(CO)(COC(=O)C(C)(C)C)OC1=O)CC(C)C (configuration not stated) | 11.4 µM and 5.25 µM | 24.1 µM and 21.3 µM | 34.9 µM and 30.6 µM | 34.2 µM and 40.3 µM | 12.2 µM and 1.7 µM | 36.7 µM and 12.7 µM | 21.7 µM | 21.2 µM and 21.6 µM | 10.3 µM and 2.55 µM | 23.2 µM and 18.6 µM | 20.2 | 49.2 µM and 11.5 µM | 13.7 µM and 14.8 µM | 29.3 µM and 33.2 µM | 17.1 µM and 3.85 µM | 54.5 µM and 21.2 µM |  |  |  | 
2 | Nc1ccccc1O.O.O=C(O)C1[O][Sb][O]C1C(=O)O (configuration not stated) | 16.1 µM | 29.8 µM | 30.6 µM | 37.7 µM | 39.9 µM | > 100 µM | 27.8 µM | > 100 µM | 16.4 µM | > 56.2 µM | 14.6 | 27.8 µM | > 66.2 µM | > 100 µM | 1.51 µM | 6.56 µM | 16 | 12.6 | 13.8 | 25.8
3 | O=C(/C=C/c1ccccc1)c1ccccc1 |  | > 10 µM | > 10 µM | > 10 µM |  | > 10 µM | > 10 µM | > 10 µM |  | > 10 µM |  | > 10 µM |  | > 10 µM |  | > 7.63 µM |  |  |  | 
4 | O=C1Nc2ccccc2/C1=C1\CCc2cc(O)ccc21 | 10.6 µM | > 25 µM | > 25 µM | > 25 µM | 11.3 µM | > 25 µM | > 25 µM | > 25 µM | 9.77 µM | > 25 µM | 11.4 | > 25 µM | 1.01 µM | > 25 µM | 9.71 µM | > 25 µM | 7.02 | 2.74 | 8.84 | 12.4
5 | O=C(Nc1cc(Nc2ncccc2-c2ncnc3nc[nH]c23)ccc1F)c1cc(C(F)(F)F)cc(C(F)(F)F)c1 | 1.42 µM | 4.27 µM | 4.34 µM | > 10 µM | 1.73 µM | 4.01 µM | > 10 µM | 5.19 µM | 0.446 µM | 4.03 µM | 4.16 | > 10 µM | 1.53 µM | 4.03 µM | 2.12 µM | 6.4 µM | 1.57 | 2.65 | 2.88 | 2.34
6 | O=C(NCc1ccc(Cn2c(=O)sn(-c3ccccc3)c2=O)cc1)OCc1ccc2cccc(O)c2n1 | 0.393 µM | 1.47 µM | 2.28 µM | 2.12 µM | 2.14 µM | 5.82 µM | 2.92 µM | 2.42 µM | 0.556 µM | 2.08 µM | 1.08 | 2.29 µM | 1.54 µM | 3.02 µM | 0.37 µM | 4.97 µM | 0.947 | 0.331 | 1.47 | 0.826
7 | NNCCc1ccc(NC(=O)CCCc2ccc(C(=O)Nc3ccccc3N)cc2)cc1 | 17.7 µM | > 100 µM | > 100 µM | > 100 µM | 13.3 µM | > 100 µM | > 100 µM | > 100 µM | 4.07 µM | > 100 µM | 14.5 | > 100 µM | 29.1 µM | > 100 µM | 3.18 µM | > 100 µM | 42.4 | 6.84 | 12 | 12
8 | CCCC/C(=C\C1=C(C)C(=O)C(OC)=C(OC)C1=O)C(=O)O | > 100 µM | > 100 µM | > 100 µM | > 100 µM | > 100 µM | > 100 µM | > 100 µM | > 100 µM | > 100 µM | > 100 µM | > 100 | > 100 µM | > 100 µM | > 100 µM | > 100 µM | > 100 µM | 31.6 | > 100 | > 100 | > 100
9 | CN(C)C(=S)SSC(=S)N(C)C | 15.7 µM and 55.6 µM and 19.7 µM | 30.2 µM and > 100 µM and 37.1 µM | 20.8 µM and 8.96 µM and 39.1 µM | 22.7 µM and 39.3 µM and > 93.5 µM |  | 81.9 µM and > 100 µM and 57.1 µM | 26 µM and > 65.3 µM and 38.5 µM | 26.6 µM and > 100 µM and 32 µM | 0.112 µM and 0.29 µM | > 54.9 µM and 30.7 µM | 20.6 | 52.4 µM and > 100 µM |  | 24.7 µM and 11.1 µM and 45.4 µM |  | 49.1 µM and 16.1 µM and 58.9 µM |  | 0.478 | 12.6 | 
10 | CCC/C=C/C=C/C1CC(O)C(O)C(=O)C1CO (configuration not stated) |  | > 100 µM | > 100 µM | > 100 µM |  | > 100 µM | > 100 µM | > 100 µM |  | > 100 µM |  | > 100 µM |  | > 100 µM |  | > 100 µM |  |  |  | 
11 | N[C@H](CCC(=O)N[C@@H](Cc1c[nH]c2ccccc12)C(=O)O)C(=O)O | > 100 µM | > 100 µM | > 100 µM | > 100 µM | > 100 µM | > 100 µM | > 100 µM | > 100 µM | > 100 µM | > 100 µM | > 100 | > 100 µM | > 100 µM | > 100 µM | > 100 µM | > 100 µM | > 100 | > 100 | > 100 | > 100
12 | CC(C)c1[nH]nc2c1N=C(c1ccccc1Cl)c1cc([N+](=O)[O-])ccc1N2 | 5.45 µM | 20.4 µM | > 24.2 µM | 24.3 µM | 8.52 µM | > 25 µM | > 25 µM | > 25 µM | 8.72 µM | > 22.2 µM | 7.87 | > 23.6 µM | 1.79 µM | 6.31 µM | 8.85 µM | > 22.6 µM | 8.06 | 4.53 | 6.16 | 6.7
13 | Nc1cc2c(cc1Br)[nH]c(=O)c1ccccc12 | 3.09 µM | 20.1 µM | 38.5 µM | 11.4 µM | 10.2 µM | 38.4 µM |  | > 100 µM | 3.46 µM | 10.8 µM | 2.14 | 4.76 µM | 3.4 µM | 11.2 µM | 5.19 µM | 42.3 µM | 2.55 | 1.83 |  | 4.14
14 | COc1ccc(-c2nn(-c3cccc(Cl)c3)cc2-c2cc(-c3ccccc3)[nH]c(=O)c2C#N)cc1 | 1.83 µM | 10.7 µM | 5.34 µM | > 50 µM |  |  | 6.76 µM | 41.6 µM | 19.5 µM | > 50 µM | 10.3 | > 50 µM | > 50 µM | > 50 µM | 45.6 µM | > 50 µM | 1.25 | 9.02 | 1.48 | 6.01
